One series can be described thus: in vitro. The conditions noted are these: human.
The test system of series [1] is Huh7 cells expressing a subgenomic RNA replicon of Con1 (genotype 1b) sequence origin.
For series [2] the test system is unchanged. In words: microbe, parasite or virus in culture. The conditions noted are these: Hepatitis C virus.
The mark [3] stands for this setting: Huh-7, 48 h, read-out: Max Effect.
Where [4] appears, read: Huh-7, read-out: IC50 (uM) [SG].
Where [5] appears, read: GETYPE1B, Huh-7, 72 h, read-out: Max Effect @CC30 (inhibition).
Where [6] appears, read: Huh-7, read-out: Max Effect@CC30 (inhibition).

The values that follow come from patent publication US20100009970A1, “COMPOSITIONS AND METHODS FOR TREATMENT OF VIRAL DISEASES” (Combinatorx (Singapore) Pte. Ltd., priority 2008, published 2010).

Structures can show the parent of a compound that is named as a salt. Where two headings read alike, the source gives them in different places.

Compound `NC1CCC(c2ccc(Cl)c(Cl)c2)c2ccccc21` (racemic) yielded a CC50 in the series “in vitro” (CC50) of 7.84 µM. In series [1], the “Synergy Score” value turned out to be 1.51 and the “TI (CC50/IC50)” value was 1.252. In series [2] (Huh-7, 48 h), half-maximal inhibition (IC50) was put at 6.26 µM. Besides, the Emax in series [2] (setting [3]) was 99%.

Turning to `COC1CC[C@@H](c2ccc(Cl)c(Cl)c2)c2ccccc21` (single isomer, unassigned) [Methoxy 4S-Sertraline-P1], the CC50 in “in vitro” (CC50 (uM) [SG]) is above 50 µM. For the same compound, the “Max Effect@CC30 (inhibition)” value in series [1] turned out to be 93.98%. In addition, in series [2] (Huh-7), the IC90 was 46.1 µM. Also, the IC50 in series [2] (setting [4]) came out at 22.7 µM.

`O=C(O)CN(CC(=O)O)c1ccccc1OCCOc1ccccc1N(CC(=O)O)CC(=O)O` [1,2-Bis-(2-aminophenoxy)ethane N,N,N,N,-tetreacetic acid, reference compound]: in series [1], half-maximal inhibition (IC50) required 14.5 µM.

In series [1], `O=[N+]([O-])c1ccc2nc(N3CCNCC3)ccc2c1` [6-Nitroquipazine, reference compound] gave an IC50 of 16.4 µM.

In series [1], `CC(=O)O[C@@]12CO[C@@H]1C[C@H](O)[C@@]1(C)C(=O)[C@H](O)C3=C(C)[C@@H](O)C[C@@](O)([C@@H](OC(=O)c4ccccc4)[C@H]21)C3(C)C` [10-Deacetylbaccatine Iii, reference compound] displayed an IC50 of 10.3 µM.

For the compound `N[C@@H]1CC[C@H](c2ccc(Cl)c(Cl)c2)c2ccccc21` [(1R,4R)-Desmethyl Sertraline, (1R,4R)-4-(3,4-dichlorophenyl)-1,2,3,4-tetrahydronaphthalen-1-amine], the CC50 is above 8.83 µM in the series “in vitro” (CC50), 8.1 µM in the series “in vitro” (CC50 (uM)) and 8.1 µM in the series “in vitro” (CC50 (uM) [SG]). Moreover, the “Synergy Score” value in series [1] was found to be 0.57. The “TI (CC50/IC50)” value in series [1] is above 1.206. Further, the Emax in series [2] (setting [5]) worked out at 0%; in series [2] (setting [3]), 81%; in series [2] (setting [6]), 0%. Besides, the half-inhibitory concentration (IC50) in series [2] (Huh-7, 48 h) came out at 7.32 µM; in series [2] (Huh-7, 72 h), 8.7 µM; in series [2] (setting [4]) it was 8.7 µM.

As to `N#C/C(=C/c1ccc(O)c(O)c1)C(=O)NCc1ccccc1` [AG-490, tyrphostin AG-490, reference compound], in series [1], the midpoint of inhibition, the IC50, lay at 5.03 µM.

In the case of `COc1ccc(C[C@H]2NC[C@H](O)[C@H]2OC(C)=O)cc1` [Anisomycin, reference compound], the half-maximal inhibitory concentration (IC50) in series [1] was determined as 0.608 µM.

In the case of `CC(C)(C)c1cc(O)c(C(C)(C)C)cc1O` [BHQ, reference compound], the half-maximal inhibitory concentration (IC50) in series [1] is 23.3 µM.

Compound `Cc1ccc(S(=O)(=O)/C=C/C#N)cc1` [Bay 11-7082, reference compound] registered an IC50 in series [1] of 15 µM.

`Nc1nc(-c2nn(Cc3ccccc3F)c3ncccc23)ncc1C1CC1` [Bay 41-2272, reference compound] yielded an IC50 in series [1] of 0.754 µM.

In series [1], `CC1=C(/C=C/C(C)O)C(C)(C)CCC1` (stereo not drawn) [Beta-Ionol] yielded an IC50 of 21 µM.

In series [1], `Nc1ccccc1NC(=O)CCCCCCC(=O)Nc1ccccc1` [CAY10433, reference compound] gave a concentration for half-maximal inhibition (IC50) of 7.88 µM.

Take `C/C1=C2/[N-]C([C@H](CC(N)=O)[C@@]2(C)CCC(=O)NC[C@@H](C)OP(=O)([O-])O[C@H]2[C@@H](O)[C@@H](n3cnc4cc(C)c(C)cc43)O[C@@H]2CO)[C@]2(C)N=C(/C(C)=C3N=C(/C=C4N=C1[C@@H](CCC(N)=O)C\4(C)C)[C@@H](CCC(N)=O)[C@]\3(C)CC(N)=O)[C@@H](CCC(N)=O)[C@]2(C)CC(N)=O.[CH2-][C@H]1O[C@@H](n2cnc3c(N)ncnc32)[C@@H](O)[C@@H]1O.[Co+3]` [Cobamamide, cobamamide, reference compound]: 0.41 µM corresponded to half-maximal inhibition in series [1] (IC50).

For the compound `O=c1cc(N2CCOCC2)oc2c1ccc1ccccc12` [DNA-PK inhibitor II, reference compound], in series [1], the half-maximal inhibitory concentration (IC50) turned out to be 6.52 µM.

As to `C[C@]12CC[C@H]3[C@@H](CCC4=CC(=O)CC[C@@]43C)[C@@H]1CC[C@@H]2C(=O)CO` [Desoxycorticosterone (e.g., acetate), deoxycorticosterone, reference compound], the IC50 in series [1] was 14.7 µM.

`COc1ccc(-c2nc(C(=O)N3CCN(C)CC3)sc2-c2ccc(OC)cc2)cc1` [FR122047, reference compound] had a half-maximal inhibitory concentration (IC50) in series [1] of 23 µM.

As for `OCCN1CCN(CC/C=C2/c3ccccc3Sc3ccc(C(F)(F)F)cc32)CC1` [Flupentixol (e.g., dihydrochloride), Flupentixol, reference compound], in series [1], the IC50 was determined as 3.6 µM.

In turn, `C/C1=C2/[N-][C@H]([C@H](CC(N)=O)[C@@]2(C)CCC(=O)NC[C@@H](C)OP(=O)([O-])O[C@H]2[C@@H](O)[C@@H](n3cnc4cc(C)c(C)cc43)O[C@@H]2CO)[C@]2(C)N=C(/C(C)=C3N=C(/C=C4N=C1[C@@H](CCC(N)=O)C\4(C)C)[C@@H](CCC(N)=O)[C@]\3(C)CC(N)=O)[C@@H](CCC(N)=O)[C@]2(C)CC(N)=O.[Co+3].[OH-]` [Hydroxocobalamin, hydroxocobalamin, reference compound] registered a half-maximal inhibitory concentration (IC50) in series [1] of 1.33 µM.

`CCC(Cc1c(I)cc(I)c(O)c1I)C(=O)O` (stereo not drawn) [Iophenoxic acid, reference compound] registered a half-maximal inhibitory concentration (IC50) in series [1] of 10.6 µM.

With `CCN(CC)c1ccc(C(=C2C=CC(=[N+](CC)CC)C=C2)c2cc(S(=O)(=O)O)ccc2S(=O)(=O)[O-])cc1` [Isosulfan Blue, reference compound], the IC50 in series [1] amounted to 24.9 µM.

For `Cc1ccc(NCCCc2ccccc2)c(N)c1` [JSH-23, reference compound], in series [1], the half-inhibitory concentration (IC50) amounted to 2.55 µM.

As to `C/C1=C2/[N-][C@H]([C@H](CC(N)=O)[C@@]2(C)CCC(=O)NC[C@H](C)OP(=O)([O-])O[C@H]2[C@@H](O)[C@@H](n3cnc4cc(C)c(C)cc43)O[C@@H]2CO)[C@]2(C)N=C(/C(C)=C3N=C(/C=C4N=C1[C@@H](CCC(N)=O)C\4(C)C)[C@@H](CCC(N)=O)[C@]\3(C)CC(N)=O)[C@@H](CCC(N)=O)[C@]2(C)CC(N)=O.[CH3-].[Co+3]` [Mecobalamin, mecobalamin, reference compound], in series [1], the IC50 is 0.179 µM.

Take `C[C@@H]1C[C@H]2[C@@H]3CCC4=CC(=O)C=C[C@]4(C)[C@@]3(Cl)[C@@H](O)C[C@]2(C)[C@@]1(O)C(=O)CCl` [Mometasone (e.g., furoate), mometasone, reference compound]: in series [1], the IC50 stood at 11.3 µM.

In turn, `O=C1C(Cl)=C(NCCN2CCOCC2)C(=O)c2ncccc21` [NSC 663284, reference compound] showed a 50% inhibitory concentration (IC50) in series [1] of 0.614 µM.

With `CCCCC1C(=O)N(c2ccccc2)N(c2ccc(O)cc2)C1=O` (stereo not drawn) [Oxyphenbutazone (e.g., hydrate), oxyphenbutazone, reference compound], half-maximal inhibition in series [1] (IC50) was put at 4.17 µM.

With `Nc1ccc(C(=O)O)c(O)c1` [P-Aminosalicylic acid, reference compound], the half-maximal inhibitory concentration (IC50) in series [1] was 13.2 µM.

`O=C1Nc2ccc3ncsc3c2/C1=C/c1cnc[nH]1` [PKR inhibitor, reference compound] yielded an IC50 in series [1] of 1.75 µM.

With `CCCCC(CC)COC(=O)c1ccc(N(C)C)cc1` (stereo not drawn) [Padimate O], the IC50 in series [1] is 5.44 µM.

`COc1ccc(CCN(C)CCC[C@](C#N)(c2ccc(OC)c(OC)c2)C(C)C)cc1OC` [R(+)-Verapamil (e.g., hydrochloride), R(+)-Verapamil, reference compound]: the concentration for half-maximal inhibition (IC50) in series [1] was 15.7 µM.

Consider `CC(=O)[O][Pt]([NH2])([Cl])([Cl])([NH]C1CCCCC1)[O]C(C)=O` [Satraplatin, reference compound], for which the 50% inhibitory concentration (IC50) in series [1] amounted to 4.8 µM.

For `CN[C@H]1CC[C@@H](c2ccc(Cl)c(Cl)c2)c2ccc(I)cc21` [Sertraline Iodide, (1S,4S)-4-(3,4-dichlorophenyl)-7-iodo-N-methyl-1,2,3,4-tetrahydronaphthalen-1-amine], the CC50 in “in vitro” (CC50 (uM)) and in “in vitro” (CC50 (uM) [SG]) was 8.92 µM throughout. The Emax in series [2] (setting [5]) and in series [2] (setting [6]) was 25% each time. Moreover, the half-inhibitory concentration (IC50) worked out at 6.57 µM in series [2] (Huh-7, 72 h) and 6.57 µM in series [2] (setting [4]).

For `CN[C@H]1CC[C@@H](c2ccc(Cl)c(Cl)c2)c2ccc(S(=O)(=O)NCCO)cc21` [Sertraline Sulfonamide Ethanol, (5S,8S)-5-(3,4-dichlorophenyl)-N-(2-hydroxyethyl)-8-(methylamino)-5,6,7,8-tetrahydronaphthalene-2-sulfonamide], the CC50 in the series “in vitro” (CC50 (uM)) and in “in vitro” (CC50 (uM) [SG]) was 13.8 µM in each case. The Emax in series [2] (setting [5]) and in series [2] (setting [6]) was 80% each time. For the same compound, the 50% inhibitory concentration (IC50) in series [2] (Huh-7, 72 h) amounted to 8.13 µM; in series [2] (setting [4]), 8.13 µM.

Turning to `N#CC(C#N)=Cc1ccc(O)c(O)c1` [Tyrphostin 23, tyrphostin 23, reference compound], the IC50 in series [1] is 14.6 µM.

`N#CC(C#N)=Cc1cc(O)c(O)c(O)c1` [Tyrphostin 25, tyrphostin 25, reference compound]: inhibition in series [1] was half-maximal at 16 µM (IC50).

In turn, `N#C/C(=C\c1ccc(O)c(O)c1)C(N)=O` [Tyrphostin 46, tyrphostin A46, reference compound] displayed a 50% inhibitory concentration (IC50) in series [1] of 21.2 µM.

As for `COc1cc2ncnc(Nc3cccc(Cl)c3)c2cc1OC` [Tyrphostin Ag 1478, tyrphostin AG 1478, reference compound], the IC50 in series [1] worked out at 3.41 µM.

`CC(=O)ON=C1C(=O)N(Cc2cc(Cl)ccc2Cl)c2ccc(Cl)cc21` [UCH-L1 inhibitor, reference compound] came in with a 50% inhibitory concentration (IC50) in series [1] of 17.2 µM.

In series [1], `Cc1cc(N)c2ccccc2c1O` [Vitamin K5] came in with an IC50 of 19.6 µM.

Take `CN[C@H]1CC[C@@H](c2ccc(Cl)c(Cl)c2)c2ccc(C(=O)NCC(=O)OC)cc21` [methyl 2-((1S,4S)-1-(3,4-dichlorophenyl)-4-(methylamino)-1,2,3,4-tetrahydronaphthalene-6-carboxamido)acetate]: the CC50 in “in vitro” (CC50 (uM) [SG]) amounted to 22.9 µM. Moreover, in series [2] (setting [4]), the 50% inhibitory concentration (IC50) stood at 6.69 µM.

Consider “N-Tosyl-L-phenylalanine chloromethyl ketone [reference compound]”, for which, in series [1], the IC50 came to 16.7 µM.

By IC50 is commonly meant the concentration at which inhibition is half-maximal. What is called IC90 is the concentration at which the effect reaches the 90% level. Higher therefore signals a need for much substance.
